We go through three compounds from patent US5498522A, “Methods for the use of spermidine/spermine N^1 -acetyltransferase as a prognostic indicator and/or a tumor response marker” (priority 1993, dated 1996).

Data set [1] relates to spermidine/spermine N^1 -acetyltransferase (SSAT). In words: SSAT induction in cultured human tumor cell lines in-vitro. The data set is classed as cell-based. The conditions noted are these: for SSAT induction (FIG. 5, words) / SSAT: 48 hours. How it is done: To illustrate this embodiment, three polyamine analogs comprising bis-ethyl spermine analogs were used to treat MALME-3 human melanoma cells cultured in-vitro, and MALME-3 cells implanted as human xenografts in the athymic nude mouse model (Bernacki et al., 1992, supra). For in-vitro treatment, MALME-3 cells were maintained as a monolayer culture growing in RPMI 1640 containing 2% N-2-hydroxy-piperazine-N^1 -ethanesulfonic acid/3-N-morpholinopropanesulfonic acid pH 7.4 as a buffer, 1 mM aminoguanidine as an inhibitor of serum oxidase, and 10% of a semidefined serum substitute. Cells were seeded at 2×10^5 cells/T-75 flask and incubated 24 hours before treatment with analogues. Following treatment with 10 μM of the respective bis-ethyl spermine analog, control and treated cultured cells were trypsinized, washed, and suspended for enzyme assays and cell number determinations.
In accordance with the above methods for assaying the induction of SSAT levels in tumor cell lines treated in-vitro and xenografts treated in-vivo, the induction pattern also correlates fairly well amongst different clonal lines of a particular tumor type. This can be illustrated with melanoma clonal lines LOX, SH-1, PANUT-3, and MALME-3.
In accordance with the above methods for assaying the induction of SSAT levels in tumor cell lines treated in-vitro and xenografts treated in-vivo, the induction pattern also correlates fairly well amongst carcinomas of solid organs. This can be illustrated with malignant clonal lines A121, A549, and HT29.
(§1) As mentioned previously, cells from malignant solid tumor respond to polyamine analog therapy heterotypically. SSAT induction and antitumor response may vary not only among the solid tumor tissue type, but also with the clonal line of tumor of a particular solid tissue type. However, a correlation between the level of induction of SSAT and the potency of antitumor response has been observed in tumors of a particular solid tissue type. For example, seven human melanoma cell lines were assayed in-vitro for their response, as determined by cell growth and level of SSAT induction, to 10 μM BESPM at 48 hours post-treatment. As summarized in FIG. 5, growth among the cell lines decreases as SSAT induction increases.
To illustrate this embodiment, LOX and MALME-3 cell cultures were treated for 48 hours with 10 μm BESPM. The cells from each culture were harvested and assayed for SSAT activity. Media samples were prepared by treating the samples with 50% trichloroacetic acid to give a final concentration of 10% and then centrifuged at 15,000×g for 10 minutes. The supernatant was then filtered through a 0.22-μm filter, extracted with several volumes of ether, lyophilized, and resuspended in 10% trichloroacetic acid. N^1 -acetylspermidine levels of cells and media samples were then measured by use of high-pressure liquid chromatography. […] Similarly, N^1 -acetylspermidine levels from MALME-3 control cells, media from control cell cultures, and treated MALME-3 cells contained minimal levels of N^1 -acetylspermidine.

The nature of data set [2]: tolerated dose / host toxicity in xenograft-bearing mice. The conditions noted are these: mouse, in vivo, every 8 hours for 6 days, read-out: tolerated dose (higher doses were toxic). Here is the method:
[…] where 1 represents length; w--width; and h--height. Tumor sizes were monitored 2 times/week until the median volume (V=0.4(a^2 ×b) where a is the smaller of the two perpendicular tumor diameters). As an indication of drug toxicity, animal weights were also recorded at the time of tumor volume measurement. Statistical analyses were performed on mouse tumor size and weight parameters by using the Mann-Whitney test.
As illustrated in Table 1 with MALME-3 human melanoma cells, the rank order effectiveness of three polyamine analogs in inducing SSAT levels both in-vitro and in-vivo were BENSPM>BESPM>BEHSPM, with substantial differences in induction between them. The same three polyamine analogs were analyzed for their effectiveness in inducing a potent antitumor response in-vivo. Mice developing palpable tumors of a similar size were divided into different treatment groups comprising 5 mice per treatment group, and 10 control mice per treatment group. The treatment groups, and treatment regimen. per group, were as follows: BEHSPM: administered every 8 hours for a 6 day period with group 1 receiving 1.5 mg/kg; group 2 receiving 3.0 mg/kg; and group 3 receiving 6.0 mg/kg.
BESPM: administered every 8 hours for a 6 day period with group 1 receiving 10 mg/kg; group 2 receiving 20 mg/kg; and group 3 receiving 40 mg/kg.
BENSPM: administered every 8 hours for a 6 day period with group 1 receiving 20 mg/kg; group 2 receiving 40 mg/kg; and group 3 receiving 80 mg/kg.
Note that the highest drug dosages for each analog approach the maximally tolerated dosage for that particular analog (for example, BEHSPM at 6 mg/kg; BESPM at 20 mg/kg; and BENSPN at 80 mg/kg were tolerated by treated animals, whereas higher doses were toxic). Tumor cells comprising the human xenograft were removed from two animals of each group and assayed for SSAT induction. […]

Data set [3] deals with spermidine/spermine N^1 -acetyltransferase (SSAT). The conditions noted are these: cited from earlier work.
Data set [4] relates to MALME-3 human melanoma cells. In words: growth of MALME-3 melanoma cells in-vitro (FIG. 5). The data set is classed as cell-based. The conditions noted are these: MALME-3, 10 μM BESPM, 48 hours. How it is done: as §1
The next data set deals with cell growth. The conditions noted are these: in-vitro; cited from earlier work.

In the case of `CCNCCCNCCCNCCCNCC` [BENSPM, N^1,N^11 -bis(ethyl)norspermine], the SSAT induction in-vitro in data set [1] (A121 ovarian, 10 μm BENSPM) is 2,700 pmol/min/10^6 cells; in data set [1] (A549 lung, 10 μm BENSPM) it was 22,755 pmol/min/10^6 cells; in data set [1] (HT29 colon, 10 μm BENSPM), 3,640 pmol/min/10^6 cells. Moreover, the “SSAT induction in-vitro relative to BESPM” value in data set [1] (MALME-3 cells, 10 μM) lay within 5 to 6 fold. Further, the MTD at 144 h in data set [2] was found to be 80 mg/kg. For the same compound, in data set [3] (BENSPM), the “SSAT induction in-vitro, PANUT-3 versus MALME-3” value was “induced to greater levels in PANUT-3 than in MALME-3”.
As to `CCNCCCNCCCCNCCCNCC` [BESPM, N^1,N^12-bis(ethyl)spermine], the “SSAT induction (FIG. 5, words)” value in data set [1] (LOX and SH-1, 10 μM BESPM) is recorded as “lowest induction of SSAT levels”; in data set [1] (MALME-3 and Ebey, 10 μM BESPM), “highest SSAT activity”. The SSAT in data set [1] (LOX, 10 μM BESPM) is reported as 120 pmol/mg/min; in data set [1] (MALME-3, 10 μM BESPM), 12,405 pmol/mg/min. For the same compound, the SSAT induction in-vitro in data set [1] (LOX, 10 μm BESPM) was 171 pmol/min/10^6 cells; in data set [1] (MALME-3, 10 μm BESPM (Table 2)), 19,520 pmol/min/10^6 cells; in data set [1] (PANUT-3, 10 μm BESPM) it was 10,343 pmol/min/10^6 cells; in data set [1] (SH-1, 10 μm BESPM), 1100 pmol/min/10^6 cells. In addition, the “SSAT induction in-vitro relative to BEHSPM” value in data set [1] (MALME-3 cells, 10 μM) was “about 10 fold”. In addition, the MTD at 144 h in data set [2] came out at 20 mg/kg. Also, the “growth inhibition (FIG. 5)” value in data set [4] was “greatest growth inhibition”. Further, the “SSAT levels after treatment” value in data set [3] (MALME-3, in-vitro) is given as “extreme induction of SSAT levels”. Besides, the “concentration inhibiting cell growth” value in the data set with cell growth is 1 to 10 µM.
On to `CCNCCCCNCCCCNCCCCNCC` [BEHSPM, N^1,N^14 -bis(ethyl)homospermine], for which the SSAT induction in-vitro in data set [1] (MALME-3 cells, 10 μM analog) is 1108 pmol/min/10^6 cells. Further, the MTD at 144 h in data set [2] worked out at 6 mg/kg.
